# Measured values reported in patent US12139492B2 (Endotarget Inc., priority 2021, dated 2024).
# Where two headings read alike, the source gives them in different places.
# What was measured:
# Mino cells = test: Antiproliferative effect, MTS cell viability assay, Mino cells; assay type: cell-based; details: Mino mantle cell lymphoma cells, read-out: IC50 (anti-proliferation) Mino cells
# Description: (§1) Antiproliferative effect of the exemplary compounds was assessed in B-cell malignancy models.
# (§2) To assess the effect of the exemplary compounds on cell viability in B-cell malignancy models by degradation of BTK protein, Mino and JeKo-1 cells were treated with varying concentrations of Ibrutinib (0, 0.001, 0.01, 0.1, 1, 10 μM). Under these conditions, cell viability was determined by an MTS assay. Cytotoxicity was assayed by the determination of reduced tetrazolium (formazan) created by metabolically active cells as detected at 490 nm absorbance using a microplate reader (BMG Labtech, Cary, NC, USA).
# (§3) The exemplary compounds attenuated the viability of Mino and JeKo-1 cells in a concentration-dependent manner at 72 h post treatment. Results are shown in Table 1 for each exemplary compound.
# JeKo-1 cells = test: Antiproliferative effect, MTS cell viability assay, JeKo-1 cells; assay type: cell-based; details: JeKo-1 mantle cell lymphoma cells, read-out: IC50 (anti-proliferation) JeKO-1 cells
# Description: as §1, §2, §3
# BTK = BTK (Homo sapiens, UniProt Q06187); test: Degradation of BTK protein in Namalwa cells (Western blot; DC50, Dmax)
# [1] = read-out: DC50 (BTK degradation), concentration giving 50% reduction of BTK expression level, cell line not given
# [2] = BTK degradation, cell line not given
# Chain of BTK (Q06187 whole entry): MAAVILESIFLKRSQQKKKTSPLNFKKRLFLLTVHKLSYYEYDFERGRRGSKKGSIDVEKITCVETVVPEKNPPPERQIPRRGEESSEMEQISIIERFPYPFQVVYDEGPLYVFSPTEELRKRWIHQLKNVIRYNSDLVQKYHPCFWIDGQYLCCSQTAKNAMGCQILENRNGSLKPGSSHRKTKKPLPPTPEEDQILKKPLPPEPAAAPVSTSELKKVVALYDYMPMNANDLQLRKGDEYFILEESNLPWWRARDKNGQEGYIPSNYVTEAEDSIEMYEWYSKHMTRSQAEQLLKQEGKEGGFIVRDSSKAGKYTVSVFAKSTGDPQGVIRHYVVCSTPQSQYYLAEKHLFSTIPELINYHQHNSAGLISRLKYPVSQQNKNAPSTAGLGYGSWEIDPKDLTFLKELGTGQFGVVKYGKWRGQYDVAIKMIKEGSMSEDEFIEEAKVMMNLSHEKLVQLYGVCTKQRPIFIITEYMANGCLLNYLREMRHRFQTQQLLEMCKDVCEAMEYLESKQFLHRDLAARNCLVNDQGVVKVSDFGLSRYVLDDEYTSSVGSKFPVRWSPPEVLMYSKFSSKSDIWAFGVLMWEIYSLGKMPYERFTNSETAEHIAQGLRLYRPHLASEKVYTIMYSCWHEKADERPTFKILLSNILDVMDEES
SMILES,DC50 (BTK; [2]),Dmax (BTK),"IC50 (Mino cells; Homo sapiens, MINO)",IC50 (JeKo-1 cells; Homo sapiens),DC50 (BTK; [1]),Dmax (BTK; read-out: Dmax (BTK degradation)),IC50 (Mino cells),IC50 (JeKo-1 cells),Dmax (BTK degradation) (BTK; cell line not given),IC50 (Mino cells; Homo sapiens),"degradation of BTK protein (BTK; Namalwa B lymphocyte cells, various concentrations, 24 hours, Western blot)"
"Nc1ncnc2c1c(-c1ccc(Oc3ccccc3)cc1)nn2C1CCN(CCN2CCC(N3CCN(c4ccc5c(c4)C(=O)N(C4CCC(=O)NC4=O)C5=O)CC3)C2)CC1 (single isomer, unassigned) [Compound 459a, 5-(4-(1-(2-(4-(4-amino-3-(4-phenoxyphenyl)-1H-pyrazolo[3,4-d]pyrimidin-1-yl)piperidin-1-yl)ethyl)pyrrolidin-3-yl)piperazin-1-yl)-2-(2,6-dioxopiperidin-3-yl)isoindoline-1,3-dione]",,,< 1 µM,< 1 µM,0.01 to 0.05 µM,> 90%,,,,,
"Nc1ncnc2c1c(-c1ccc(Oc3ccccc3)cc1)nn2C1CCN(CCN2CCC(N3CCN(c4ccc5c(c4)C(=O)N(C4CCC(=O)NC4=O)C5=O)CC3)C2)CC1 (single isomer, unassigned) [Compound 459b, 5-(4-(1-(2-(4-(4-amino-3-(4-phenoxyphenyl)-1H-pyrazolo[3,4-d]pyrimidin-1-yl)piperidin-1-yl)ethyl)pyrrolidin-3-yl)piperazin-1-yl)-2-(2,6-dioxopiperidin-3-yl)isoindoline-1,3-dione]",,,,,< 0.01 µM,,< 1 µM,< 1 µM,A (A >90%),,
"Nc1ncnc2c1c(-c1ccc(Oc3ccccc3)cc1)nn2[C@@H]1CCCN(C2CCN(C(=O)N3CCC(CCCC4CCN(c5ccc6c(c5)C(=O)N(C5CCC(=O)NC5=O)C6=O)CC4)CC3)CC2)C1 (stereo partly drawn) [Compound 195, 5-(4-(3-(1-((R)-3-(4-amino-3-(4-phenoxyphenyl)-1H-pyrazolo[3,4-d]pyrimidin-1-yl)-[1,4′-bipiperidine]-1′-carbonyl)piperidin-4-yl)propyl)piperidin-1-yl)-2-(2,6-dioxopiperidin-3-yl)isoindoline-1,3-dione]",> 0.05 µM,> 75%,> 10 µM,1 to 10 µM,,,,,,,
"Nc1ncnc2c1c(-c1ccc(Oc3ccccc3)cc1)nn2[C@@H]1CCCN(C2CCN(C(=O)N3CCC(CCCC4CCN(c5ccc6c(c5)CN(C5CCC(=O)NC5=O)C6=O)CC4)CC3)CC2)C1 (stereo partly drawn) [Compound 196, 3-(5-(4-(3-(1-((R)-3-(4-amino-3-(4-phenoxyphenyl)-1H-pyrazolo[3,4-d]pyrimidin-1-yl)-[1,4′-bipiperidine]-1′-carbonyl)piperidin-4-yl)propyl)piperidin-1-yl)-1-oxoisoindolin-2-yl)piperidine-2,6-dione]",0.01 to 0.05 µM,> 75%,1 to 10 µM,1 to 10 µM,,,,,,,
"Nc1ncnc2c1c(-c1ccc(Oc3ccccc3)cc1)nn2[C@@H]1CCCN(C2CCN(C(=O)N3CCC(CCCN4CCC(c5ccc6c(c5)CN(C5CCC(=O)NC5=O)C6=O)CC4)CC3)CC2)C1 (stereo partly drawn) [Compound 198, 3-(5-(1-(3-(1-((R)-3-(4-amino-3-(4-phenoxyphenyl)-1H-pyrazolo[3,4-d]pyrimidin-1-yl)-[1,4′-bipiperidine]-1′-carbonyl)piperidin-4-yl)propyl)piperidin-4-yl)-1-oxoisoindolin-2-yl)piperidine-2,6-dione]",0.01 to 0.05 µM,> 75%,1 to 10 µM,1 to 10 µM,,,,,,,
"Nc1ncnc2c1c(-c1ccc(Oc3ccccc3)cc1)nn2C1CCN(CC2CCN(CC3CCN(c4ccc5c(c4)CN(C4CCC(=O)NC4=O)C5=O)CC3)CC2)CC1 (stereo not shown) [Compound 200, 3-(5-(4-((4-((4-(4-amino-3-(4-phenoxyphenyl)-1H-pyrazolo(3,4-d)pyrimidin-1-yl)piperidin-1-yl)methyl)piperidin-1-yl)methyl)piperidin-1-yl)-1-oxoisoindolin-2-yl)piperidine-2,6-dione]",> 0.05 µM,< 50%,,1 to 10 µM,,,,,,1 to 10 µM,dose-dependent degradation
"Nc1ncnc2c1c(-c1ccc(Oc3ccccc3)cc1)nn2C1CCN(CC2CCN(CCN3CCN(c4ccc5c(c4)C(=O)N(C4CCC(=O)NC4=O)C5=O)CC3)CC2)CC1 (stereo not shown) [Compound 203, 5-(4-(2-(4-((4-(4-amino-3-(4-phenoxyphenyl)-1H-pyrazolo[3,4-d]pyrimidin-1-yl)piperidin-1-yl)methyl)piperidin-1-yl)ethyl)piperazin-1-yl)-2-(2,6-dioxopiperidin-3-yl)isoindoline-1,3-dione]",0.01 to 0.05 µM,> 90%,1 to 10 µM,1 to 10 µM,,,,,,,
"Nc1ncnc2c1c(-c1ccc(Oc3ccccc3)cc1)nn2C1CCN(CC2CCN(CCN3CCN(c4ccc5c(c4)CN(C4CCC(=O)NC4=O)C5=O)CC3)CC2)CC1 (stereo not shown) [Compound 204, 3-(5-(4-(2-(4-((4-(4-amino-3-(4-phenoxyphenyl)-1H-pyrazolo[3,4-d]pyrimidin-1-yl)piperidin-1-yl)methyl)piperidin-1-yl)ethyl)piperazin-1-yl)-1-oxoisoindolin-2-yl)piperidine-2,6-dione]",0.01 to 0.05 µM,> 90%,< 1 µM,1 to 10 µM,,,,,,,

# Now from value to compound, other results behind:
DC50 (BTK; [2]),Dmax (BTK),SMILES,"IC50 (Mino cells; Homo sapiens, MINO)",IC50 (JeKo-1 cells; Homo sapiens),DC50 (BTK; [1]),Dmax (BTK; read-out: Dmax (BTK degradation)),IC50 (Mino cells),IC50 (JeKo-1 cells),Dmax (BTK degradation) (BTK; cell line not given),IC50 (Mino cells; Homo sapiens),"degradation of BTK protein (BTK; Namalwa B lymphocyte cells, various concentrations, 24 hours, Western blot)"
< 0.01 µM,,"Nc1ncnc2c1c(-c1ccc(Oc3ccccc3)cc1)nn2C1CCN(C2CCN(CC3CCN(c4ccc5c(c4)C(=O)N(C4CCC(=O)NC4=O)C5=O)CC3)CC2)CC1 (stereo in doubt) [Compound 213b, (S)-5-(4-((4-(4-amino-3-(4-phenoxyphenyl)-1H-pyrazolo[3,4-d]pyrimidin-1-yl)-[1,4′-bipiperidin]-1′-yl)methyl)piperidin-1-yl)-2-(2,6-dioxopiperidin-3-yl)isoindoline-1,3-dione]",,,,,< 1 µM,< 1 µM,,,
0.01 to 0.05 µM,> 75%,"Nc1ncnc2c1c(-c1ccc(Oc3ccccc3)cc1)nn2[C@@H]1CCCN(C2CCN(C(=O)N3CCC(CCCN4CCC(c5ccc6c(c5)C(=O)N(C5CCC(=O)NC5=O)C6=O)CC4)CC3)CC2)C1 (stereo partly drawn) [Compound 197, 5-(1-(3-(1-((R)-3-(4-amino-3-(4-phenoxyphenyl)-1H-pyrazolo[3,4-d]pyrimidin-1-yl)-[1,4′-bipiperidine]-1′-carbonyl)piperidin-4-yl)propyl)piperidin-4-yl)-2-(2,6-dioxopiperidin-3-yl)isoindoline-1,3-dione]",1 to 10 µM,> 10 µM,,,,,,,
0.01 to 0.05 µM,> 90%,"Nc1ncnc2c1c(-c1ccc(Oc3ccccc3)cc1)nn2C1CCN(CC2CCN(CC3CCN(c4ccc5c(c4)C(=O)N(C4CCC(=O)NC4=O)C5=O)CC3)CC2)CC1 (stereo not shown) [Compound 199, 5-(4-((4-((4-(4-amino-3-(4-phenoxyphenyl)-1H-pyrazolo(3,4-d)pyrimidin-1-yl)piperidin-1-yl)methyl)piperidin-1-yl)methyl)piperidin-1-yl)-2-(2,6-dioxopiperidin-3-yl)isoindoline-1,3-dione]",< 1 µM,1 to 10 µM,,,,,,,
0.01 to 0.05 µM,> 90%,"Nc1ncnc2c1c(-c1ccc(Oc3ccccc3)cc1)nn2C1CCN(CC2CCN(CCC3CCN(c4ccc5c(c4)C(=O)N(C4CCC(=O)NC4=O)C5=O)CC3)CC2)CC1 (stereo not shown) [Compound 201, 5-(4-(2-(4-((4-(4-amino-3-(4-phenoxyphenyl)-1H-pyrazolo[3,4-d]pyrimidin-1-yl)piperidin-1-yl)methyl)piperidin-1-yl)ethyl)piperidin-1-yl)-2-(2,6-dioxopiperidin-3-yl)isoindoline-1,3-dione]",1 to 10 µM,1 to 10 µM,,,,,,,
0.01 to 0.05 µM,> 90%,"Nc1ncnc2c1c(-c1ccc(Oc3ccccc3)cc1)nn2C1CCN(CC2CCN(CCC3CCN(c4ccc5c(c4)CN(C4CCC(=O)NC4=O)C5=O)CC3)CC2)CC1 (stereo not shown) [Compound 202, 3-(5-(4-(2-(4-((4-(4-amino-3-(4-phenoxyphenyl)-1H-pyrazolo[3,4-d]pyrimidin-1-yl)piperidin-1-yl)methyl)piperidin-1-yl)ethyl)piperidin-1-yl)-1-oxoisoindolin-2-yl)piperidine-2,6-dione]",1 to 10 µM,< 1 µM,,,,,,,
0.01 to 0.05 µM,> 90%,"Nc1ncnc2c1c(-c1ccc(Oc3ccccc3)cc1)nn2C1CCN(CC2CCN(CCN3CCC(c4ccc5c(c4)C(=O)N(C4CCC(=O)NC4=O)C5=O)CC3)CC2)CC1 (stereo not shown) [Compound 205, 5-(1-(2-(4-((4-(4-amino-3-(4-phenoxyphenyl)-1H-pyrazolo[3,4-d]pyrimidin-1-yl)piperidin-1-yl)methyl)piperidin-1-yl)ethyl)piperidin-4-yl)-2-(2,6-dioxopiperidin-3-yl)isoindoline-1,3-dione]",< 1 µM,1 to 10 µM,,,,,,,
0.01 to 0.05 µM,> 90%,"Nc1ncnc2c1c(-c1ccc(Oc3ccccc3)cc1)nn2C1CCN(CC2CCN(CCN3CCC(c4ccc5c(c4)CN(C4CCC(=O)NC4=O)C5=O)CC3)CC2)CC1 (stereo not shown) [Compound 206, 3-(5-(1-(2-(4-((4-(4-amino-3-(4-phenoxyphenyl)-1H-pyrazolo[3,4-d]pyrimidin-1-yl)piperidin-1-yl)methyl)piperidin-1-yl)ethyl)piperidin-4-yl)-1-oxoisoindolin-2-yl)piperidine-2,6-dione]",< 1 µM,< 1 µM,,,,,,,
> 0.05 µM,> 75%,Nc1ncnc2c1c(-c1ccc(Oc3ccccc3)cc1)nn2C1CCN(CC2CCN(CCCN3CCN(c4ccc5c(c4)C(=O)N(C4CCC(=O)NC4=O)C5=O)CC3)CC2)CC1 (stereo not shown) [Compound 207],> 10 µM,> 10 µM,,,,,,,
